Measurements from ChEMBL document CHEMBL1155461, “Emerging targets in osteoporosis disease modification” (J Med Chem, 2010).
Converted amounts (≈) assume the structure as drawn. One block for each compound: values may come before it.

Key:
[1] = Clearance in rat; format: ADME, organism-based; conditions: in vivo
[2] = Half life in rat; format: ADME, organism-based; conditions: in vivo
[3] = target: Integrin alpha-IIb/beta-3 (Homo sapiens) (UniProt P05106+P08514); assay: Inhibition of integrin alpha2Bbeta3; format: protein-complex assay
[4] = target: Vitronectin (Homo sapiens) (UniProt P04004); assay: Inhibition of vitronectin
Sequence of Vitronectin (Homo sapiens) (P04004 whole entry): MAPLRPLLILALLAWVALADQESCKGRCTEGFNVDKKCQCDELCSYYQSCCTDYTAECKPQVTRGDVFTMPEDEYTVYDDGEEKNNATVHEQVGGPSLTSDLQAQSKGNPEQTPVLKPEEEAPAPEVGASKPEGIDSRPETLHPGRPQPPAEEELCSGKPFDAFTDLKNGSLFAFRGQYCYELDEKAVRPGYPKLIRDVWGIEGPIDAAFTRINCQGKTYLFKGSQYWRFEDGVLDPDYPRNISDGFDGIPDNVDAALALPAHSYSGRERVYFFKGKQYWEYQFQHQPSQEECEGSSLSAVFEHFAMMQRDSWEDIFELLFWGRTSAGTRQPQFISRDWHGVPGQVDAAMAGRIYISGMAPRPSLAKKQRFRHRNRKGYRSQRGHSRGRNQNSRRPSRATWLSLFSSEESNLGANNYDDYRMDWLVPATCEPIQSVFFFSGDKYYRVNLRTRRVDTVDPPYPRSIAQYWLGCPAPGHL

[5] = Aqueous solubility of the compound; format: physicochemical; conditions: aqueous medium
[6] = target: Integrin alpha-V/beta-3 (Homo sapiens, UniProt P05106+P06756)
Sequence of Integrin alpha-V/beta-3 (P05106 27-788 limits assumed): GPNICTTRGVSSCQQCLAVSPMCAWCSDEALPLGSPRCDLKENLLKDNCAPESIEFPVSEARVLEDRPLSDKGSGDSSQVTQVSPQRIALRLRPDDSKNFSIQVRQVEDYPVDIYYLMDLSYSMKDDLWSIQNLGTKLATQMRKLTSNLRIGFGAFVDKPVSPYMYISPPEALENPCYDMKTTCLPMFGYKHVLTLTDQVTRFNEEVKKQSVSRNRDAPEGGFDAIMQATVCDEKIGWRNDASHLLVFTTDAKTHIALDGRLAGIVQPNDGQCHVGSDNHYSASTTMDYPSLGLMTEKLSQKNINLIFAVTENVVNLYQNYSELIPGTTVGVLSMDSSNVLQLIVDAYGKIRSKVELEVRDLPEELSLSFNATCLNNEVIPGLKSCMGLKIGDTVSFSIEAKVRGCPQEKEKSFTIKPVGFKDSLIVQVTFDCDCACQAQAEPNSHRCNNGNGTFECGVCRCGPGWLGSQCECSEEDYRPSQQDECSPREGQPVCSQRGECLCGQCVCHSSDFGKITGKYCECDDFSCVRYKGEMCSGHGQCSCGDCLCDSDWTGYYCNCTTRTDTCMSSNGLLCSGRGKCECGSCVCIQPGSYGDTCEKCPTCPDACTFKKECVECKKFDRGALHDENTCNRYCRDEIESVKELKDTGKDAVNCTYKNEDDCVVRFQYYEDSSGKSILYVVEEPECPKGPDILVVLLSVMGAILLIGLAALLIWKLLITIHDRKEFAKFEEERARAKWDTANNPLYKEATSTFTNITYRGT
Sequence of Integrin alpha-V/beta-3 (P06756 31-889 limits assumed): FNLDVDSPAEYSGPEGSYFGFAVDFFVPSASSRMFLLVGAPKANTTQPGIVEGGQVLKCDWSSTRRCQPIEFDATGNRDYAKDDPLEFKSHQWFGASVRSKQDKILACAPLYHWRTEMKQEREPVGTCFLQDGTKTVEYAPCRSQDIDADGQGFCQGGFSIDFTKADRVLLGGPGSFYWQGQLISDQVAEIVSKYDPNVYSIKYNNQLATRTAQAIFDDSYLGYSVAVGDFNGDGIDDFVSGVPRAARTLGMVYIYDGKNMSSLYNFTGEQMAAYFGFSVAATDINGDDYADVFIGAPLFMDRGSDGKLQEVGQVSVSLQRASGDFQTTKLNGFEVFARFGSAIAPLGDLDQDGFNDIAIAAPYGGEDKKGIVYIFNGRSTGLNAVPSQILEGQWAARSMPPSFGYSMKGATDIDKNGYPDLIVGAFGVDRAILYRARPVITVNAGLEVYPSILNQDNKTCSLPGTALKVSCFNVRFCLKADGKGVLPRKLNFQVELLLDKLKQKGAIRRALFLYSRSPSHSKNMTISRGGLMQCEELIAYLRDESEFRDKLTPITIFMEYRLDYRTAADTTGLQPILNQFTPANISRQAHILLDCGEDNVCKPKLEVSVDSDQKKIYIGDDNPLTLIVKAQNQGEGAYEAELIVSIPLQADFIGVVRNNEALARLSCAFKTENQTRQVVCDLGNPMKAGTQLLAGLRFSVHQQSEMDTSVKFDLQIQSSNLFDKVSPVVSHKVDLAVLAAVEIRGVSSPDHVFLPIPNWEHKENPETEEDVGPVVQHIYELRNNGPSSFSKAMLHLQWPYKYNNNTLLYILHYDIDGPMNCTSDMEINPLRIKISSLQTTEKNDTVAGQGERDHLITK
Sequence of Integrin alpha-V/beta-3 (P06756 891-1048 limits assumed): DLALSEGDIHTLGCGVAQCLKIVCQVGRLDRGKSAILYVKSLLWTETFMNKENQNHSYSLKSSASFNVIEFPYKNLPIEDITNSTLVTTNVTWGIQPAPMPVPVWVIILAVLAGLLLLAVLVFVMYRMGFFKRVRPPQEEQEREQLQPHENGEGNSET

[7] = Selectivity for cathepsin K over cathepsin B
[8] = Selectivity for cathepsin K over cathepsin L
[9] = Selectivity for cathepsin K over cathepsin S
[10] = target: Cathepsin K (Rattus norvegicus, UniProt O35186); assay: Inhibition of rat cathepsin K
Sequence of Cathepsin K (O35186 whole entry): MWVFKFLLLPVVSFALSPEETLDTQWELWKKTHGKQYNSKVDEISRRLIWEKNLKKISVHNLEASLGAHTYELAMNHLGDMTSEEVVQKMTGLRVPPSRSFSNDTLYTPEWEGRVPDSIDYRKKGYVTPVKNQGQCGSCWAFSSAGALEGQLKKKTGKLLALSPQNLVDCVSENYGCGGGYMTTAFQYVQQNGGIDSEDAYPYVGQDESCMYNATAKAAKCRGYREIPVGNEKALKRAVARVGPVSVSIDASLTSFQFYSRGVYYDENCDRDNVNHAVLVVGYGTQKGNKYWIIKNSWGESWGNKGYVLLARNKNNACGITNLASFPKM

[11] = Cmax in rat at 50 mg/kg, po; format: ADME, organism-based; parameters: dose 50 mg/kg, route oral; conditions: in vivo
[12] = AUC in rat at 50 mg/kg, po; format: ADME, organism-based; parameters: dose 50 mg/kg, route oral; conditions: plasma
[13] = Selectivity for cathepsin K over cathepsin V
[14] = Selectivity for cathepsin K over cathepsin H
[15] = Selectivity for cathepsin K over cathepsin F
[16] = Bioavailability in dog; format: ADME, organism-based, Canis lupus familiaris; conditions: in vivo
[17] = Bioavailability in rat; format: ADME, organism-based; conditions: in vivo
[18] = system: Homo sapiens; assay: Antiosteoporotic activity in patient with osteoporosis assessed as increase in lumbar spine bone mineral density at 50 mg/kg, po administered weekly for 24 months relative to placebo control; format: functional
[19] = system: Homo sapiens; assay: Antiosteoporotic activity in patient with osteoporosis assessed as increase in hip bone mineral density at 50 mg/kg, po administered weekly for 24 months relative to placebo control; format: functional, Bone of hip region
[20] = Clearance in po dosed rat; format: ADME, organism-based; conditions: in vivo
[21] = Half life in po dosed rat; format: ADME, organism-based; conditions: in vivo
[22] = Clearance in po dosed dog; format: ADME, organism-based, Canis lupus familiaris; conditions: in vivo
[23] = system: Rattus norvegicus; assay: Antiosteoporotic activity in rat assessed as increase in distal femoral metaphysis bone mineral density at 10 mg/kg BID for 28 days relative to control; format: functional
[24] = system: Rattus norvegicus; assay: Antiosteoporotic activity in rat assessed as increase in distal femoral metaphysis bone mineral density at 30 mg/kg BID for 28 days relative to control; format: functional
[25] = system: Rhesus monkey; assay: Antiosteoporotic activity in rhesus monkey assessed as decrease in bone resorption-associated urinary NTX-1 level at 15 mg/kg QD for 14 days; format: functional, Macaca mulatta, Urine; parameters: scale not given: the % may be the effect or the level left
[26] = system: Homo sapiens; assay: Antiosteoporotic activity in postmenopausal woman with osteoporosis assessed as increase in lumbar spine bone mineral density at 200 mg/kg BID for 12 months; format: functional
[27] = system: Homo sapiens; assay: Antiosteoporotic activity in postmenopausal woman with osteoporosis assessed as increase in hip bone mineral density at 200 mg/kg BID for 12 months; format: functional, Bone of hip region
[28] = system: Homo sapiens; assay: Antiosteoporotic activity in postmenopausal woman with osteoporosis assessed as increase in femoral neck bone mineral density at 200 mg/kg BID for 12 months; format: functional
[29] = Selectivity for integrin alphaVbeta3 over integrin alphaVbeta5
[30] = organism: Homo sapiens; assay: Plasma protein binding in human; conditions: read-out: PPB (converted)
[31] = Induction of osteogenesis in mouse calvarial cells assessed as increase in total bone area at 10 nM; format: functional, Calvarial cell
[32] = system: Cynomolgus monkey; assay: Antiosteoporotic activity in cynomolgus monkey assessed as decrease in bone resorption-associated serum CTX-1 level at 10 mg/kg, po administered as single dose; format: functional; conditions: Macaca fascicularis
[33] = system: Cynomolgus monkey; assay: Antiosteoporotic activity in cynomolgus monkey assessed as decrease in bone resorption-associated urinary CTX-1 level at 10 mg/kg, po administered as single dose; format: functional; conditions: Macaca fascicularis, Urine
[34] = system: Cynomolgus monkey; assay: Antiosteoporotic activity in cynomolgus monkey assessed as decrease in bone resorption-associated serum CTX-1 level at 10 mg/kg, po administered 5X a day; format: functional; conditions: Macaca fascicularis
[35] = system: Cynomolgus monkey; assay: Antiosteoporotic activity in cynomolgus monkey assessed as decrease in bone resorption-associated urinary CTX-1 level at 10 mg/kg, po administered 5X a day; format: functional; conditions: Macaca fascicularis, Urine
[36] = system: Cynomolgus monkey; assay: Antiosteoporotic activity in cynomolgus monkey assessed as increase in lumbar vertebrae bone strength at 30 mg/kg administered daily for 1 year; format: functional, Macaca fascicularis, Lumbar vertebra
[37] = system: Cynomolgus monkey; assay: Antiosteoporotic activity in cynomolgus monkey assessed as increase in lumbar vertebrae bone strength at 1000 mg/kg administered daily for 1 year; format: functional, Macaca fascicularis, Lumbar vertebra
[38] = system: MC3T3-E1; assay: Increase in octeocalcin mRNA expression in mouse MC3T3-E1 cells at 30 uM relative to control; format: functional
[39] = system: MC3T3-E1; assay: Increase in ALP mRNA expression in mouse MC3T3-E1 cells at 30 uM relative to control; format: functional

SMILES: CC[C@@H](CNc1ccc(OCC(=O)O)cc1)NC(=O)C1(Nc2cccc(-c3ccccc3)c2)CCCCC1
Selectivity ratio [7]: > 4170
Selectivity ratio [8]: > 4170
Selectivity ratio [9]: 2080
IC50 [10]: 58 nM
Cmax [11]: 9200 ng/mL
AUC [12]: 104 µg·h/mL

SMILES: CC(C)(F)C[C@H](N[C@@H](c1ccc(-c2ccc(S(C)(=O)=O)cc2)cc1)C(F)(F)F)C(=O)NC1(C#N)CC1 [ODANACATIB]
Selectivity ratio [7]: 5170
Selectivity ratio [8]: 15000
Selectivity ratio [9]: 300
Selectivity ratio [13]: 3810
Selectivity ratio [14]: > 50000
Selectivity ratio [15]: 3980
bioavailability [16]: ≤ 100%
bioavailability [17]: ≤ 38%
Activity [18]: 5.5%
Activity [19]: 3.2%

SMILES: O=S(=O)(NC1CCNCC1)c1cc(S(=O)(=O)c2ccccc2)ccc1C(F)(F)F
Activity [31]: 60%

SMILES: CC(C)C[C@H](NC(=O)c1cc2ccccc2o1)C(=O)N[C@H]1CC[C@@H](C)N(S(=O)(=O)c2ccccn2)CC1=O [RELACATIB]
inhibition in vivo at 10 mg/kg [32]: ≤ 57%
inhibition in vivo at 10 mg/kg [33]: ≤ 57%
inhibition in vivo at 10 mg/kg [34]: ≤ 57%
inhibition in vivo at 10 mg/kg [35]: ≤ 57%
Activity [36]: 42%
Activity [37]: 49%

SMILES: C/C(=C\Cc1c(O)cc2occ(-c3ccc(O)cc3)c(=O)c2c1O)CO [GLABRISOFLAVONE]
Activity [38]: 58%
Activity [39]: 58%

The next lines start with results.

clearance [1]: 47 mL/min/kg
half-life [2]: 0.767 h
INH [3]: 0.44 nM
INH [4]: 110 nM
solubility [5]: 1300 µg/mL (≈ 2330 µM)
IC50 [6]: 0.19 nM
SMILES: COc1cc(C(=O)NC[C@H](NS(=O)(=O)c2ccccc2)C(=O)O)ccc1N1CCC(NC2=NCCCN2)CC1

CL/F [20]: 47 mL/min/kg
half-life [21]: 3 h
CL/F [22]: 6.4 mL/min/kg
Selectivity ratio [29]: 125
fraction unbound [30]: 0.12
SMILES: COc1ccc([C@H](CC(=O)O)N2CCN(CCCc3ccc4c(n3)NCCC4)C2=O)cn1
Activity [23]: 8.9%
Activity [24]: 12.8%
Activity [25]: 39%
Activity [26]: 3.5%
Activity [27]: 1.7%
Activity [28]: 2.4%
